In PMC8402547, “In Vitro and In Vivo Analysis of Ochratoxin A-Derived Glucuronides and Mercapturic Acids as Biomarkers of Exposure” (Toxins, 2021):

Assays:
[1] = In vitro incubation of OTA with liver S9 and UDP-glucuronic acid (glucuronide formation); assay type: in vitro ADME, rat
Protocol: (§1) Liver S9 fractions from rats (Sprague-Dawley, male, 97 donors, 20 mg/mL) and humans (mixed genders, 50 donors, 20 mg/mL) were obtained from XenoTech (Kansas City, USA). S9 fractions from Goettingen® minipigs and rabbits were prepared in-house based on a modified protocol from Hubbard et al. (1985). Rabbit liver (Blue Vienna x German Giant, female) was obtained from ImmonuGlobe (Himmelstadt, Germany), whereas minipig liver (Goettingen® minipig, male, 42.4 kg bw) was obtained from the University Goettingen, Department of Animal Science.
(§2) For analysis of OTA-derived glucuronides, liver S9 fractions (4 mg/mL) of rats, rabbit, minipigs and humans were incubated with OTA (0.1 mM), uridine-diphosphate-glucuronic acid (5 mM) and magnesium chloride (5 mM) in 100 mM phosphate-buffered saline (pH 7.4) in a total volume of 300 µL at 37 °C for two hours. Control incubations were carried out in the absence of uridine-diphosphate-glucuronic acid. […] Ten microliters (10 µL) of each sample was injected into the LC–MS system and analyzed using the method described below. […]
(§3) The API 2000/Q-Trap mass spectrometer was operated with a Turbo Ion Spray source in negative ion mode with a voltage of −4000 V. Spectral data were recorded with N2 as the heater gas at 450 °C and as the collision gas (CAD = −2) in multiple reaction monitoring mode (MRM).

[2] = as above; assay type: in vitro ADME; details: OTA 0.1 mM, UDPGA 5 mM, 37 °C
Protocol: as §1, §2, §3

[3] = as above; assay type: in vitro ADME, human
Protocol: as §1, §2, §3

[4] = human urine samples; cited from earlier work

SMILES | Formation of OTA glucuronide (m/z transitions 578/402 and 578/358) ([1]; rat liver S9 4 mg/mL, OTA 0.1 mM, UDPGA 5 mM, 37 °C) | OTA-glucuronide formed as compared to rabbit and minipig samples (signal intensities) ([1]; rat liver S9 vs rabbit and minipig liver S9) | Formation of OTA glucuronide (m/z transitions 578/402 and 578/358) ([2]; minipig liver S9 4 mg/mL) | Formation of OTA glucuronide (m/z transitions 578/402 and 578/358) ([2]; rabbit liver S9 4 mg/mL) | Formation of OTA glucuronide (m/z transitions 578/402 and 578/358) ([3]; human liver S9 4 mg/mL, OTA 0.1 mM, UDPGA 5 mM, 37 °C) | OTA-glucuronide formed as compared to rabbit and minipig samples (signal intensities) ([3]; human liver S9 vs rabbit and minipig liver S9) | Concentration in human urine following enzymatic hydrolysis as compared to without hydrolysis [4]
CC1Cc2c(Cl)cc(C(=O)NC(Cc3ccccc3)C(=O)OC3OC(C(=O)O)C(O)C(O)C3O)c(O)c2C(=O)O1 (stereo not shown) [OTA-Glucuronide] | detected | 5–10 times | detected | detected | detected | 5–10 times | 
C[C@@H]1Cc2c(Cl)cc(C(=O)N[C@@H](Cc3ccccc3)C(=O)O)c(O)c2C(=O)O1 [OTA, Ochratoxin A] |  |  |  |  |  |  | up to 6 fold
